In US20040063649A1, “Azithromycin combination for emesis control in mammals” (Pfizer Inc, priority 1999, published 2004):

Legend:
[1] = tested on: azithromycin-induced emesis in azithromycin-sensitive English pointers; assay: Control of azithromycin-induced emesis in an azithromycin-sensitive dog population; type: in vivo
Protocol: (§1) The ability of various compounds to control azithromycin-induced emesis in dogs was measured in 13 studies using two groups of dogs. The majority of the studies were conducted using a family (dam and offspring) of 12 azithromycin-sensitive English pointers, bred and maintained by Young Veterinary Research Services of Turlock, Calif. The remaining studies were conducted using random source dogs maintained at the Pfizer Animal Health Research facility in Terre Haute, Ind. In all studies, azithromycin was administered in immediate release formulations at a dose of 10 mg/kg.
Initially, four commercialized antiemetic products and CP122,721 were screened individually in the azithromycin-sensitive population with a minimum 7 day washout period between antiemetic tests. Antiemetics were administered orally about 15 to 30 minutes prior to oral treatment with 10 mg/kg azithromycin in an immediate release tablet. […] Other antiemetics reduced the incidence of emesis by only about 10 to 42%.
(§2) Four studies were conducted to titrate the dose of CP122,721 for maximum antiemetic activity with and without a delay between oral antiemetic and oral azithromycin dosing. […] While these studies were in progress, random source dogs (8 per-treatment) were administered 0, 1.5 or 3 mg/kg CP122,721 simultaneously with 10 mg/kg azithromycin. […] In the fourth study, the sensitive pointers received either 3 or 4 mg/kg CP122,721 simultaneously with azithromycin. The incidence of emesis was equivalent with one dog in each treatment group vomiting.

emesis in ferrets = details: vomiting caused by intragastric copper sulfate and ipecac syrup, subcutaneous loperamide, intraperitoneal cisplatin; cited from earlier work
[2] = tested on: azithromycin-induced emesis in random source dogs; assay: Control of azithromycin-induced emesis in random source dogs; type: in vivo, dog; details: for Emetic Dogs/Total Dogs: Random source dogs, 0 minutes before (simultaneously with) azithromycin 10 mg/kg
Protocol: as §1, §2

[3] = antiemetic 1 mg/kg oral, 30 minutes before azithromycin 10 mg/kg oral immediate release tablet

## CN(C)CCOC(c1ccccc1)c1ccccc1.Cn1c(=O)c2[nH]c(Cl)nc2n(C)c1=O [Dimenhydrinate, reference compound]
[1]; antiemetic 8 mg/kg oral, 30 minutes before azithromycin 10 mg/kg oral immediate release tablet
  Emetic Dogs/Total Dogs: 10/12

## COc1ccc(OC(F)(F)F)cc1CN[C@H]1CCCN[C@H]1c1ccccc1 [CP122,721, (2S,3S)-3-(2-methoxy-5-trifluoromethoxybenzyl)amino-2-phenylpiperidine]
[1]; 5 mg/kg oral, about 15 to 30 minutes prior to oral azithromycin 10 mg/kg
  effective in preventing emesis: 100%
[1]; Sensitive dogs, 30 minutes before azithromycin 10 mg/kg
  Emetic Dogs/Total Dogs: 0/4
[1]; Sensitive dogs, CP122,721 1 mg/kg oral, 30 minutes before azithromycin 10 mg/kg
  Emetic Dogs/Total Dogs: 4/4
[1]; Sensitive dogs, CP122,721 2.5 mg/kg oral, 0 minutes before (simultaneously with) azithromycin 10 mg/kg
  Emetic Dogs/Total Dogs: 6/6
[1]; Sensitive dogs, CP122,721 2.5 mg/kg oral, 30 minutes before azithromycin 10 mg/kg
  Emetic Dogs/Total Dogs: 0/6
[1]; Sensitive dogs, CP122,721 3 mg/kg, 0 minutes before (simultaneously with) azithromycin 10 mg/kg
  Emetic Dogs/Total Dogs: 1/6
[1]; Sensitive dogs, CP122,721 4 mg/kg, 0 minutes before (simultaneously with) azithromycin 10 mg/kg
  Emetic Dogs/Total Dogs: 1/6
[1]; Sensitive dogs, CP122,721 dose cell blank (third line of first titration), 30 minutes before azithromycin 10 mg/kg
  Emetic Dogs/Total Dogs: 0/4
[1]; antiemetic 5 mg/kg oral, 30 minutes before azithromycin 10 mg/kg oral immediate release tablet
  Emetic Dogs/Total Dogs: 0/12
[1]; sensitive pointers, 2.5 mg/kg simultaneously with azithromycin
  emesis (in words): all pointers were emetic
[1]; sensitive pointers, 2.5 mg/kg, 30 minutes prior to azithromycin
  prevention of emesis (in words): effective in preventing emesis
[1]; sensitive pointers, 3 mg/kg simultaneously with azithromycin
  dogs vomiting in treatment group: one
[1]; sensitive pointers, 4 mg/kg simultaneously with azithromycin
  dogs vomiting in treatment group: one
Emesis in ferrets
  effect on vomiting in ferrets (in words): reduces vomiting
[2]; CP122,721 1.5 mg/kg
  Emetic Dogs/Total Dogs: 4/8
[2]; CP122,721 3 mg/kg
  Emetic Dogs/Total Dogs: 0/8
[2]; random source dogs, 8 per treatment, 1.5 mg/kg simultaneously with 10 mg/kg azithromycin
  incidence of emesis (in words): not reduced
[2]; random source dogs, 8 per treatment, 3 mg/kg simultaneously with 10 mg/kg azithromycin
  prevention of azithromycin emesis (in words): completely effective

## CN1CCN(CCCN2c3ccccc3Sc3ccc(Cl)cc32)CC1 [Prochlorperazine, reference compound]
[1]; [3]
  Emetic Dogs/Total Dogs: 7/12

## CCN(CC)CCNC(=O)c1cc(Cl)c(N)cc1OC [Metoclopramide, reference compound]
[1]; antiemetic 0.5 mg/kg oral, 15 minutes before azithromycin 10 mg/kg oral immediate release tablet
  Emetic Dogs/Total Dogs: 11/12

## Cc1nccn1CC1CCc2c(c3ccccc3n2C)C1=O (centres unmarked) [Ondansetron, reference compound]
[1]; [3]
  Emetic Dogs/Total Dogs: 5/12
[1]; antiemetic oral about 15 to 30 minutes prior to oral azithromycin 10 mg/kg, doses as in Table 1
  reduction of the incidence of emesis: 58%
